{
  "source": "patent US20260224716A1",
  "about": "“PTH ANALOGS FOR THE TREATMENT OF HYPOPARATHYROIDISM” (priority 2020, published 2026)",
  "key": {"serum calcium [1]": {"test_system": "serum calcium", "assay": "Pharmacology in normal mice: serum calcium (Example 6)", "type": "in vivo, C57Bl6/J mice", "details": "FIG. 5C, 20 or 40 nmol/kg SC, 24 and 48 hours", "protocol": "Each group of mice was bled immediately before the injection and after 24 and 48 hours. Blood was centrifuges and serum was collected and stored at −20 C. Calcium concentrations were determined used commercially available assays following the manufacturer's instructions."}, "serum calcium [2]": {"test_system": "serum calcium", "assay": "Pharmacology in normal rats: serum calcium (Example 5)", "type": "in vivo, Sprague Dawley rats", "details": "FIG. 5A; 20, 40, 80 nmol/kg SC, dose-responsive over 72 hours", "protocol": "(§1) Each group of rats was bled immediately before the injection and after 6, 24, 48 and 72 hours. Blood was spun and serum was collected and stored at −20° C. Calcium and phosphorous concentrations were determined used commercially available assays following the manufacturer's instructions."}, "serum phosphate": {"test_system": "serum phosphate", "assay": "Pharmacology in normal rats: serum phosphate (Example 5)", "type": "in vivo, Sprague Dawley rats", "details": "FIG. 5B; 20, 40, 80 nmol/kg SC, dose-responsive over 72 hours", "protocol": "as §1"}, "[3]": {"assay": "Pharmacokinetics of A8 PTH prodrugs in monkeys, single subcutaneous dose (Example 8)", "type": "in vivo, cynomolgus monkeys", "details": "single SC dose 25 nmol/kg, FIGS. 7A, 7B", "protocol": "The pharmacokinetic profile of PTH analogues following a single subcutaneous dose to cynomolgus monkeys and an evaluation of the pharmacodynamic response of serum calcium and phosphorus was investigated. A total of six monkey were used in this test 2 males and 4 females ranging in age from 2-4 years old at beginning of the study and having a weight of at least 2.5 kg.\nAnimals were assigned to groups as noted in the Table 6 below. Animals were dosed by subcutaneous injection. Dose administration was staggered. The Group 1\nmale was dosed once, and the remaining two Group 1 females and all Group 2 animals were dosed once, approximately four days later. First day of dosing was designated as Study Day (SD) 1 for each animal. The dose volume was 0.3 mL/kg. Individual dose volumes were calculated based on the animals' most recently recorded body weight. […]\nPharmacokinetic mean concentration-time data was analyzed using non-compartmental methods (Phoenix® WinNonlin® Version 7.0 or higher) based on the route of administration. The following parameters were calculated whenever possible and as data allows: Cmax, Tmax, and AUC. […]\nResults from these pharmacokinetic (PK) studies are provided in FIGS. 7A and 7B wherein the concentration of the administered prodrug form and its activate drug form (produced after in vivo non-enzymatic cleavage of the dipeptide prodrug element) were measured over time."}, "[4]": {"assay": "Rate of model dipeptide cleavage from hexapeptide in PBS (HPLC, LC-MS)", "type": "physicochemical", "details": "buffer", "protocol": "The solution was incubated at 37° C.\nThe flow rate was 1 ml/min."}, "[5]": {"test_system": "calcium urinary excretion", "details": "humans, 100 ug subcutaneous; adequate control limited to only ⅓ of the day; cited from earlier work"}},
  "note": "*1 amine or outer side, *2 acyl side, *3 side chain or, on linkers, in order; H or OH if unused. Where a SMILES comes first, the peptide text is derived from it. Side-chain parts run from the residue outwards. [ ]: non-standard residue; d: D form. The star is where a group is joined. C18 diacid = O=C(O)CCCCCCCCCCCCCCCCC(=O)*; γGlu = O=C(O)[C@H](CCC(=O)[*:2])N[*:1]; AEEA = NCCOCCOCC(=O)O; Sar = CNCC(=O)O",
  "data": [
    {"molecule": "SVSEIQLMHNLGKHLNSMERVEWLRKKLQDVHK(γE-COC16H32CO2H)F-OH (SVSEIQLMHNLGKHLNSMERVEWLRKKLQDVHXF; K33 γE-diacidC18 acylation; C-terminal acid; SITE 33 MISC_FEATURE - Xaa at position 33 is Lys wherein the side chain is acylated with COC16H32CO2H via a gamma Glu spacer; listed as Homo sapiens) [SEQ ID NO: 102, PTH(1-34), K33(γE-diacidC18)]", "values": [
      {"measurement": "effect on serum calcium levels", "setting": "serum calcium [1]", "value": "increase serum calcium levels"},
      {"measurement": "effect on serum calcium levels", "setting": "serum calcium [2]", "value": "increase serum calcium levels"},
      {"measurement": "effect on serum phosphate", "setting": "serum phosphate", "value": "reduce serum phosphate"}
    ]},
    {"molecule": "CC[C@H](C)[C@H](NC(=O)[C@H](CCC(=O)O)NC(=O)[C@H](CO)NC(=O)[C@@H](NC(=O)[C@H](CO)NC(=O)CN(C)C(=O)[C@H](N)CCCCNC(=O)CC[C@H](NC(=O)COCCOCCNC(=O)COCCOCCNC(=O)CC[C@H](NC(=O)CCCCCCCCCCCCCCCCC(=O)O)C(=O)O)C(=O)O)C(C)C)C(=O)N[C@@H](CCC(N)=O)C(=O)N[C@@H](CC(C)C)C(=O)N[C@@H](C)C(=O)N[C@@H](Cc1c[nH]cn1)C(=O)N[C@@H](CC(N)=O)C(=O)N[C@@H](CC(C)C)C(=O)NCC(=O)N[C@@H](CCCCN)C(=O)N[C@@H](Cc1c[nH]cn1)C(=O)N[C@@H](CC(C)C)C(=O)N[C@@H](CC(N)=O)C(=O)N[C@@H](CO)C(=O)N[C@@H](CCSC)C(=O)N[C@@H](CCC(=O)O)C(=O)N[C@@H](CCCNC(=N)N)C(=O)N[C@H](C(=O)N[C@@H](CCC(=O)O)C(=O)N[C@@H](Cc1c[nH]c2ccccc12)C(=O)N[C@@H](CC(C)C)C(=O)N[C@@H](CCCNC(=N)N)C(=O)N[C@@H](CCCCN)C(=O)N[C@@H](CCCCN)C(=O)N[C@@H](CC(C)C)C(=O)N[C@@H](CCC(N)=O)C(=O)N[C@@H](CC(=O)O)C(=O)N[C@H](C(=O)N[C@@H](Cc1c[nH]cn1)C(=O)N[C@@H](CCCCNC(=O)CC[C@H](NC(=O)COCCOCCNC(=O)COCCOCCNC(=O)CC[C@H](NC(=O)CCCCCCCCCCCCCCCCC(=O)O)C(=O)O)C(=O)O)C(=O)O)C(C)C)C(C)C", "note": "[SEQ ID NO: 95] (H-[dK]([γGlu-AEEA-AEEA-γGlu-C18 diacid])[Sar]SVSEIQLAHNLGKHLNSMERVEWLRKKLQDVHK([γGlu-AEEA-AEEA-γGlu-C18 diacid])-OH)", "values": [
      {"measurement": "plasma concentration versus singly fatty acylated prodrug SEQ ID: 94", "setting": "[3]", "value": "higher concentration that is sustained for a longer period"},
      {"measurement": "half-life at 1 mg/ml", "setting": "[4]", "value": "> 20.8", "unit": "days"}
    ]},
    {"molecule": "Natpara: NPS/Shire's Natpara® (rhPTH), approved by the FDA in January of 2015 (protein, listed as Homo sapiens) SVSEIQLMHNLGKHLNSMERVEWLRKKLQDVHNFVALGAPLAPRDAGSQRPRKKEDNVLVESHEKSLGEADKADVNVLTKAKSQ", "values": [
      {"measurement": "duration of action on calcium", "setting": "[5]", "value": "insufficient duration of action"}
    ]}
  ]
}
